Data reported in article PMC467105, “A comprehensive investigation of the anion inhibition profile of a β-carbonic anhydrase from Acinetobacter baumannii for crafting innovative antimicrobial treatments” (Journal of Enzyme Inhibition and Medicinal Chemistry, 2024).

Target: β-AbauCA (Acinetobacter baumannii β-CA, CanB) (Acinetobacter baumannii, UniProt A0A7U3Y636)
Sequence of UniProt A0A7U3Y636 (A0A7U3Y636 1-204): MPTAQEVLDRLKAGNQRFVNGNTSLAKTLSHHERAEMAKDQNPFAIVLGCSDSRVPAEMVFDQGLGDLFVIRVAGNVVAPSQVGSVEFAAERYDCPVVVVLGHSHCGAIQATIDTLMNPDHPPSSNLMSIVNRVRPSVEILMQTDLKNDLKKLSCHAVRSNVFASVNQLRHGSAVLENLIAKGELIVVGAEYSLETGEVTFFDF
Assay: biochemical
Format: biochemical
Settings: not given
In the case of [O]=[Ru](=[O])(=[O])=[O] [RuO4^-, perrhuthenate], the “affinity / Ki for β-AbauCA (in words)” value is reported as “submillimolar”. In the case of O=S(=O)(O)NS(=O)(=O)O [NH(SO3)2^2-, iminodisulfonate], the “affinity / Ki for β-AbauCA (in words)” value is reported as “submillimolar”. With N#CS [SCN^-, thiocyanate] the “affinity / Ki for β-AbauCA (in words)” value was “low millimolar affinity”. With OB1OB2OB(O)OB(O1)O2 [B4O7^2-, tetraborate] the “affinity / Ki for β-AbauCA (in words)” value was “low millimolar affinity”. With [O]=[Re](=[O])(=[O])[O-] [ReO4^-, perrhenate] the “affinity / Ki for β-AbauCA (in words)” value was “low millimolar affinity”. With NS(=O)(=O)O [Anion H2NSO3H, sulphamic acid] the “affinity / Ki for β-AbauCA (in words)” value was “submillimolar”. For [O]=[Sn]([OH])[OH] [SnO3^2-, stannate], the “affinity / Ki for β-AbauCA (in words)” value was “low millimolar affinity”. For OB(O)c1ccccc1 [Ph-B(OH)2, phenylboronic acid], the Ki was 0.29 mM and the “affinity / Ki for β-AbauCA (in words)” value was “submillimolar”. In the case of S [HS^-, hydrogensulfide], the “affinity / Ki for β-AbauCA (in words)” value is reported as “submillimolar”. For NS(N)(=O)=O [Anion H2NSO2NH2, sulfamide], the “affinity / Ki for β-AbauCA (in words)” value was “low millimolar affinity”. With [O]=[V]([OH])([OH])[O][V](=[O])([OH])[OH] [V2O7^4-, divanadate] the “affinity / Ki for β-AbauCA (in words)” value was “low millimolar affinity”. For O=S(=O)(O)OOS(=O)(=O)O [S2O8^2-, peroxydisulfate], the “affinity / Ki for β-AbauCA (in words)” value was “low millimolar affinity”. In the case of CCN(CC)C(=S)S [Et2NCS2^-, diethyldithiocarbamate], the Ki is reported as 8.2 mM and the “affinity / Ki for β-AbauCA (in words)” value is reported as “low millimolar affinity”. In the case of N#CO [CNO^-, cyanate], the “affinity / Ki for β-AbauCA (in words)” value is reported as “submillimolar”. With S=C(S)S [CS3^2-, trithiocarbonate] the “affinity / Ki for β-AbauCA (in words)” value was “low millimolar affinity”. For N#C[SeH] [SeCN^-, selenocyanide], the “affinity / Ki for β-AbauCA (in words)” value was “submillimolar”.

Same assay, conditions: read-out: Ki β-AbauCA
Compound F[B-](F)(F)F [BF4^-, tetrafluoroborate] has a Ki greater than 100 mM. For [O]=[Ru](=[O])(=[O])=[O] [RuO4^-, perrhuthenate], the Ki was 0.96 mM. For O=[Se](=O)(O)O [SeO4^2-, selenate], the Ki was 18.4 mM. In the case of F [F^-], the Ki is reported as greater than 100 mM. In the case of O=P(O)(O)OP(=O)(O)O [P2O7^4-, pyrophosphate], the Ki is reported as 33.6 mM. Work on O=S(=O)(O)NS(=O)(=O)O [NH(SO3)2^2-, iminodisulfonate] yielded a Ki of 0.93 mM. OB1OB2OB(O)OB(O1)O2 [B4O7^2-, tetraborate] gave a Ki of 6.9 mM. [O]=[Re](=[O])(=[O])[O-] [ReO4^-, perrhenate] gave a Ki of 8.1 mM. With NS(=O)(=O)O [Anion H2NSO3H, sulphamic acid] the Ki was 0.63 mM. [O]=[Sn]([OH])[OH] [SnO3^2-, stannate] gave a Ki of 2.4 mM. For I [I^-], the Ki was greater than 100 mM. Compound [N-]=[N+]=[N-] [N3^-, azide] has a Ki greater than 100 mM. With S [HS^-, hydrogensulfide] the Ki was 0.4 mM. For O=S(=O)(O)C(F)(F)F [CF3SO3^-, triflate], the Ki was greater than 100 mM. Cl [Cl^-] showed a Ki greater than 100 mM. Compound Br [Br^-] has a Ki greater than 100 mM. With [O-][Cl+3]([O-])([O-])O [ClO4^-, perchlorate] the Ki was greater than 100 mM. Compound NS(N)(=O)=O [Anion H2NSO2NH2, sulfamide] has a Ki of 2.1 mM. In the case of O=[Te](=O)(O)O [TeO4^2-, tellurate], the Ki is reported as 6 mM. Compound O=[N+]([O-])O [NO3^-, nitrate] has a Ki of 47.9 mM. O=NO [NO2^-, nitrite] showed a Ki of 31.1 mM. [O]=[V]([OH])([OH])[O][V](=[O])([OH])[OH] [V2O7^4-, divanadate] showed a Ki of 5.8 mM. In the case of O=C(O)O [CO3^2-, carbonate], the Ki is reported as greater than 100 mM. For O=S(=O)(O)OOS(=O)(=O)O [S2O8^2-, peroxydisulfate], the Ki was 3.8 mM. N#CO [CNO^-, cyanate] showed a Ki of 0.79 mM. O=S(=O)(O)O [SO4^2-, sulphate] gave a Ki of 79.3 mM. For S=C(S)S [CS3^2-, trithiocarbonate], the Ki was 3.3 mM. Work on O=S(O)O [HSO3^-, bisulphite] yielded a Ki of 59.1 mM. Work on N#C[SeH] [SeCN^-, selenocyanide] yielded a Ki of 0.71 mM.

Target: PgiCAβ (Porphyromonas gingivalis β-CA)
Assay: not given
Design: method as in PMID 24146373
Settings: CO2 hydrase, stopped-flow assay; cited from earlier work
In the case of F[B-](F)(F)F [BF4^-, tetrafluoroborate], the Ki is listed as greater than 100 mM. For F [F^-], the Ki is listed as 7.8 mM. In the case of O=P(O)(O)OP(=O)(O)O [P2O7^4-, pyrophosphate], the Ki is listed as 8.2 mM. In the case of O=S(=O)(O)NS(=O)(=O)O [NH(SO3)2^2-, iminodisulfonate], the Ki is given as 2.1 mM. In the case of N#CS [SCN^-, thiocyanate], the Ki is given as 1.9 mM. In the case of NS(=O)(=O)O [Anion H2NSO3H, sulphamic acid], the Ki is listed as 0.06 mM. For I [I^-], the Ki is given as 21.4 mM. In the case of O=S(=O)(O)C(F)(F)F [CF3SO3^-, triflate], the Ki is listed as 8.5 mM. For Cl [Cl^-], the Ki is given as 7.5 mM. In the case of Br [Br^-], the Ki is listed as 15.9 mM. For F[P-](F)(F)(F)(F)F [PF6^-, hexafluorophosphate], the Ki is listed as 8.2 mM. For NS(N)(=O)=O [Anion H2NSO2NH2, sulfamide], the Ki is listed as 0.078 mM. For O=[N+]([O-])O [NO3^-, nitrate], the Ki is listed as greater than 100 mM. For O=S(=O)(O)OOS(=O)(=O)O [S2O8^2-, peroxydisulfate], the Ki is listed as 9.2 mM. In the case of CCN(CC)C(=S)S [Et2NCS2^-, diethyldithiocarbamate], the Ki is given as 0.23 mM. In the case of S=C(S)S [CS3^2-, trithiocarbonate], the Ki is listed as 4.3 mM. For O=S(O)O [HSO3^-, bisulphite], the Ki is given as greater than 100 mM.

Same assay, conditions: cited from earlier work
In the case of O=[Se](=O)(O)O [SeO4^2-, selenate], the Ki is listed as 9.2 mM. For OB(O)c1ccccc1 [Ph-B(OH)2, phenylboronic acid], the Ki is listed as 0.077 mM. For [N-]=[N+]=[N-] [N3^-, azide], the Ki is given as greater than 100 mM. For S [HS^-, hydrogensulfide], the Ki is listed as 4.5 mM. In the case of O=[As](O)(O)c1ccccc1 [Ph-AsO3H2, phenylarsonic acid], the Ki is listed as 0.076 mM. For [O-][Cl+3]([O-])([O-])O [ClO4^-, perchlorate], the Ki is listed as greater than 100 mM. For O=C(O)O [HCO3^-, bicarbonate], the Ki is given as 7.3 mM. For O=NO [NO2^-, nitrite], the Ki is given as 7.8 mM. In the case of O=C(O)O [CO3^2-, carbonate], the Ki is given as 3.7 mM. In the case of N#CO [CNO^-, cyanate], the Ki is given as 0.76 mM. In the case of O=S(=O)(O)O [SO4^2-, sulphate], the Ki is given as greater than 100 mM. In the case of N#C[SeH] [SeCN^-, selenocyanide], the Ki is given as 2.4 mM.
